{
  "source": "patent US11406707B2",
  "about": "“STAT3 phosphorylation during graft-versus-host disease” (H. LEE MOFFITT CANCER CENTER AND RESEARCH INSTITUTE, INC., priority 2014, dated 2022)",
  "key": {"[1]": {"tested_on": "DC-allosensitized T-cell proliferation", "experiment": "allo-MLR T-cell proliferation (colorimetric MTS assay, stimulation index)", "assay_type": "cell-based, human", "details": "for T-cell proliferation: day 5", "method": "Allo-MLRs consisted of T cells stimulated by cytokine-mature moDCs (DC:T-cell ratio 1:30, 1×10^5 T cells per 100 μl medium in a 96-well plate, 37° C.). […] The allogeneic moDC stimulators were matured with a cytokine cocktail and terminally differentiated, eliminating the need for irradiation [Betts, B. C., et al. (2011) Blood 118, 5330-5339]. T-cell proliferation was quantified by a colorimetric assay (CellTiter 96 AQueous One Solution Cell Proliferation Assay [MTS]; Promega, Madison, Wis.) on day 5, per the manufacturer's instructions, with absorbance quantified at 490 nm [Betts, B. C., et al. (2011) Blood 118, 5330-5339]. The stimulation index was calculated by dividing the OD of the allo-MLR by the OD of T cells alone. PHA-stimulated T cells served as a positive control. Identical allo-MLRs were cultured with CAS 285986-31-4, to determine the dose-response effect of STAT5 inhibition on allostimulated T-cell growth. For these initial experiments, the cultures were analyzed on day 4 because of the early rapid T-cell proliferation among the STAT5 inhibitor-treated wells. The stimulation index was determined as described."}, "T cells": {"tested_on": "T cells", "experiment": "T-cell viability by Live/Dead staining in treated allo-MLRs", "assay_type": "cell-based, human", "method": "Fluorochrome-conjugated mouse anti-human mAbs included anti-CD3, -CD4, -CD8, -CD25, -CD45RO, -CD107a, -CD127, -Foxp3, -pSTAT3/pY705, -pSTAT5/pY694, -IFN-, and -IL-17A (BD Biosciences, San Jose, Calif. USA; eBioscience; San Diego, Calif., USA; Invitrogen; Carlsbad, Calif., USA). Viability was assessed by Live/Dead staining (Invitrogen). Live events were acquired on FACSCalibur or LSRII (BD Biosciences) flow cytometers (FlowJo software, ver. 7.6.4; TreeStar, Ashland, Oreg., USA). Gates were defined by appropriate isotype controls. Naive T-cell sorting was performed on the FACSVantageDiVa (BD Biosciences). Where indicated, CD4^+ T cells were purified by magnetic-bead negative selection (Miltenyi Biotec, Auburn, Calif., USA)."}, "STAT3 [2]": {"molecular_target": "T1, STAT3 (Homo sapiens, UniProt P40763)", "T1 construct": "endogenous in cells; host or cells: primary human T cells from healthy-donor PBMC, allostimulated by monocyte-derived dendritic cells", "T1 sequence (P40763 whole entry)": "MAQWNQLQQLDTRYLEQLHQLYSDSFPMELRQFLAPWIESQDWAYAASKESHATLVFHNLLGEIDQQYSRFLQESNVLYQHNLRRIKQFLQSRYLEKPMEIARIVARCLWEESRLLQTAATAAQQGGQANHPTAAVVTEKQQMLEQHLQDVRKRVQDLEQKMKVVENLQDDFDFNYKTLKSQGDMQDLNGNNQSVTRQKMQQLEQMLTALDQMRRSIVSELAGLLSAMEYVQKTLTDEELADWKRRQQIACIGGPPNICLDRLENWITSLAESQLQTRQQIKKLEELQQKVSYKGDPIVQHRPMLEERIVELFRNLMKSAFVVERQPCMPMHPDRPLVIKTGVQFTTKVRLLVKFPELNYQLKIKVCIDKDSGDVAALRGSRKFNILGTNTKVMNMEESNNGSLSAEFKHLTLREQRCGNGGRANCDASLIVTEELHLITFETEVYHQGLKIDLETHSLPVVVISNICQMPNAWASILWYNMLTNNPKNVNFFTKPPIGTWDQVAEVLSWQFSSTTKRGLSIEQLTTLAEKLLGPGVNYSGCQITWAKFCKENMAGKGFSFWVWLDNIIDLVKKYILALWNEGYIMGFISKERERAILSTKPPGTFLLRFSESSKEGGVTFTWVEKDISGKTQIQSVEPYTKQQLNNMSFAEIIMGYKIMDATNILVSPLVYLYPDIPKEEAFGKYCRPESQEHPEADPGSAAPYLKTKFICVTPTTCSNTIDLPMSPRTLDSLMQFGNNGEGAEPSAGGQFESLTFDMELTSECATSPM", "experiment": "IL-6-pulsed STAT3 phosphorylation in alloactivated T cells (flow cytometry)", "assay_type": "cell-based", "description": "To confirm selective STAT3 inhibition, T cells were first briefly allostimulated by moDCs (DC:T cell ratio 1:30) and then pulsed with the relevant STAT3- or -5-dependent cytokine in the presence or absence of S3I-201. The 3-day exposure to allogenic moDCs allows the responding T cells to increase CD25 expression and capacity to receive IL-2 signaling, while resting or stimulated T cells phosphorylate STAT3 in response to IL-6 [Betts, B. C., et al. (2011) Blood 118, 5330-5339]. DC-allostimulated T cells (1×10^6) were then exposed to S3I-201 (50 or 100 μM) or DMSO for 4 h in serum-free RPMI (Corning Cellgro) to reduce background phosphorylation, followed by a 15 min pulse with IL-6 (4000 IU/ml) or -2 (50 IU/ml). T-cell STAT phosphorylation was determined by surface staining for CD3, followed by fixation (CytoFix; BD Biosciences), permeabilization with cold methanol, and intracellular staining for STAT3 and -5. The phosphorylated STAT3 and -5 geometric MFI ratio was calculated by dividing the geometric MFI of the cytokine-pulsed cells by the geometric MFI of the corresponding fluorochrome isotype."}, "STAT3 [3]": {"molecular_target": "T1, STAT3", "experiment": "STAT3 phosphorylation in CD4+ T cells of 5 day allo-MLRs without exogenous cytokine", "assay_type": "cell-based", "details": "S3I-201 50 or 100 μM, 5 day allo-MLR", "method": "(§1) No exogenous cytokine was added. DC-allosensitized T cells were harvested on day 5. […] The ratio of CD4^+, pSTAT5^Bright to CD4^+, pSTAT3^+ T cells was calculated by percentage of phosphorylation."}, "STAT5": {"tested_on": "STAT5", "experiment": "STAT5 phosphorylation in CD4+ T cells of 5 day allo-MLRs without exogenous cytokine", "assay_type": "cell-based, human", "method": "as §1"}, "[4]": {"tested_on": "allostimulated T-cell proliferation", "experiment": "Primary 5-day alloMLR T-cell proliferation", "assay_type": "cell-based, human", "description": "(§2) Bulk donor T-cells were allostimulated with cytokine-matured, allogeneic moDCs at a DC:T-cell ratio of 1:30 as previously described (Florida Blood Services) [Betts, B C, et al. (2011) Blood 118:5330-9; Betts, B C, et al. […] Betts, B C, et al. (2011) Blood 118:5340-3]. […] Lower doses of each drug were used in these experiments to mimic expected physiologic concentrations [Siddiquee, K, et al. (2007) Proceedings of the National Academy of Sciences of the United States of America 104:7391-6; Zeiser, R, et al. (2008) Blood 111:453-62], and to better detect potential synergistic activity with the combination of rapamycin and S3I-201. After 5 days of culture at […]-cell proliferation was measured by a colorimetric assay per the manufacturer's instructions (CellTiter 96 Aqueous One Solution Cell Proliferation Assay [MTS]; Promega, Madison, Wis. USA) [Betts, B C, et al. (2011) Blood 118:5330-9; Betts, B C, et al. […] Betts, B C, et al. (2011) Blood 118:5340-3]. Absorbance/optical density (OD) was analyzed at 490 nm. Secondary alloMLR: […] Following priming, the T-cells were then rested and re-cultured with fresh first-party moDCs (DC:T-cell ratio of 1:30). […] After 3 days, T-cell proliferation was measured by a colorimetric assay as described (Promega). T-cells alone and PHA-stimulated T-cells served as negative and positive controls, respectively, for both the primary and secondary alloMLRs."}, "primed T-cells": {"tested_on": "primed T-cells", "experiment": "Secondary alloMLR (3-day restimulation of primed T-cells) proliferation", "assay_type": "cell-based, human", "description": "as §2"}, "[5]": {"molecular_target": "STAT3 Ser727 and Y705 motifs (Homo sapiens, UniProt P40763)", "sequence (P40763 whole entry)": "as above", "details": "literature; cited from earlier work"}, "[6]": {"details": "S3I-201 50 or 100 μM, 5 day allo-MLR"}},
  "data": [
    {"smiles": "Cc1ccc(S(=O)(=O)OCC(=O)Nc2ccc(C(=O)O)c(O)c2)cc1", "note": "[S3I-201]", "values": [
      {"measurement": "reduction in T-cell proliferation", "setting": "[1]; S3I-201 50 μM added once day 0, readout day 5", "value": 50, "unit": "%"},
      {"measurement": "T-cell proliferation", "setting": "[1]; S3I-201 100 μM", "value": "complete impairment"},
      {"measurement": "T-cell proliferation", "setting": "[1]; S3I-201 1 or 10 μM", "value": "little effect"},
      {"measurement": "T-cell proliferation in allo-MLRs compared with DMSO", "setting": "[1]; S3I-201 50 or 100 μM, FIG. 1B", "value": "significantly reduced"},
      {"measurement": "T-cell viability", "setting": "T cells; S3I-201 50 μM", "value": "preserved"},
      {"measurement": "T-cell viability (viability staining)", "setting": "T cells; S3I-201 100 μM", "value": "toxicity"},
      {"measurement": "IL-6-mediated STAT3 signaling", "setting": "STAT3 [2]; S3I-201 50 and 100 μM, 4 h, 15 min IL-6 pulse", "value": "inhibited"},
      {"measurement": "concentration giving the highest degree of STAT3 inhibition selectivity", "setting": "STAT3 [2]; STAT3 vs STAT5 phosphorylation", "value": 50, "unit": "µM"},
      {"measurement": "STAT3 phosphorylation in CD4+ alloresponders", "setting": "STAT3 [3]", "value": "maintained on-target suppression"},
      {"measurement": "CD4+, pSTAT5Bright population", "setting": "STAT5; S3I-201 100 μM", "value": "trend in reduced STAT5 phosphorylation"},
      {"measurement": "STAT5 activation in response to DC allostimuli", "setting": "STAT5; [6]", "value": "preserved"},
      {"measurement": "ratio of CD4+, pSTAT5Bright to CD4+, pSTAT3+ T cells", "setting": "STAT5; [6]", "value": "robust, dose-dependent polarization"},
      {"measurement": "CD4+, pSTAT5Bright population", "setting": "STAT5; S3I-201 vs DMSO, 5 day allo-MLR", "value": "maintained"},
      {"measurement": "allostimulated T-cell proliferation", "setting": "[4]; S3I-201 50 uM single agent", "value": "significantly reduced"},
      {"measurement": "alloreactive T-cell proliferation", "setting": "[4]; S3I-201 below 50 μM single agent", "value": "no effect"},
      {"measurement": "inhibition at 50 µM", "setting": "primed T-cells; Homo sapiens, T-cell, S3I-201 50 μM, read-out: inhibition of proliferation in comparison to DMSO", "value": 67, "unit": "%"},
      {"measurement": "proliferation of primed T-cells on rechallenge", "setting": "primed T-cells; S3I-201 50 μM alone", "value": "significantly suppressed"},
      {"measurement": "phosphorylation of the STAT3 Ser727 motif", "setting": "[5]", "value": "much less"},
      {"measurement": "phosphorylation of the STAT3 Y705 motif", "setting": "[5]", "value": "predominantly inhibits"}
    ]}
  ]
}
